Several values for one entry are separate records, joined by “and”; a condition that tells them apart may be missing. Equal values may be shown once.
Columns and labels:
E. coli K0519020 = assay: MIC of strain used for extraction of enzymes, E. coli K0519020 (CTX-M-15, TEM-1, OXA-1, AmpC (NC_000913)); assay type: cell-based; details: BLI: 4 ug/mL
K. pneumoniae 101 = assay: BLI potentiation MIC, K. pneumoniae 101; assay type: cell-based; details: BLI fixed 4 ug/ml; incubation 19 h
Description: (§1) MIC90 (μg/mL) is the lowest concentration of an antibiotic that will inhibit the visible growth of 90% of microorganisms after incubation as compared with a control group to which the antibiotic is not treated.
(§2) MIC values were measured by the broth microdilution method developed by the Clinical and Laboratory Standards Institute (CLSI) (see CLSI M07-A9, Methods for Dilution Antimicrobial Susceptibility Test for Bacteria that Grow Aerobically; Approved Standard-Ninth Edition (2012): CLSI, Villanova, Pa.). The in vitro antibacterial activity was measured with respect to the following 9 clinical isolates: P. aeruginosa (3 strains); K. pneumoniae (6 strains). The in vitro antibacterial activity of selected compounds was measured with respect to the following 15 clinical isolates: K. pneumoniae (15 strains).

[1] = molecular target: KPC-3 β-lactamase (class A) (Klebsiella pneumoniae, UniProt Q9F663, H272Y); assay: Inhibitory activity against β-lactamases (nitrocefin), KPC-3; assay type: biochemical, K. pneumoniae; details: 100 μM nitrocefin, 30° C., pH 6.8; read-out: IC50 values, KPC-3
Sequence of KPC-3 β-lactamase (class A) (Q9F663 25-293 H272Y): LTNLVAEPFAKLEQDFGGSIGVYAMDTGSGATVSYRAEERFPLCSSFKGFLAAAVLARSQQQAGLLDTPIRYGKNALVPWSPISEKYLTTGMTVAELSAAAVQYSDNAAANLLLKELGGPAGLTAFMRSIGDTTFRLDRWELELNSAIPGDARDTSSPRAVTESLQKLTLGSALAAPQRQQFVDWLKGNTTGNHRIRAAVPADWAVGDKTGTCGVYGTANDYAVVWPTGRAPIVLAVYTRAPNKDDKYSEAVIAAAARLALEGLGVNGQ
Description: (§3) More diluted stocks were prepared as necessary. Enzyme activity was determined by monitoring the change of absorbance at 492 nm using the characteristic molecular extinction coefficient (Δε492=17,400 M^−1 cm^−1) of nitrocefin by a Shimazu UV-1650PC spectrophotometer. The nitrocefin was purchased from OXOID. Kinetic measurements were run at 30° C. in 10 mM MES[2-(N-morpholino)ethanesulfonic acid]buffer (pH 6.8) or 10 mM MES[2-(N-morpholino)ethanesulfonic acid] buffer (pH 6.8), […] BSA and 50 mM sodium bicarbonate. Reactions were performed in 2.5 mL cuvettes with 100 μM nitrocefin and initiated by adding 1.5 nM to 2.5 nM enzyme. The first 180 s of each reaction was used to measure initial rates. Data were evaluated using Microsoft Excel. Concentration dependent inhibition of enzyme was measured using different concentrations of inhibitors resulting from two-fold dilution series. Reaction progress at every concentration of inhibitor was measured in triplicates. IC50 values were calculated using 4-parameter log fits using XL Fit curve fitting software (www.idbs.com) for Excel using the following equation:
(§4) [formula] where y is the remaining enzyme activity (in %) and x is the corresponding concentration. he fitted IC50 parameter is the relative IC50, and is defined as the concentration giving a response half way between the fitted top (B) and bottom (A) of the curve.

K. pneumoniae 89 = assay: BLI potentiation MIC, K. pneumoniae 89; assay type: cell-based; details: BLI fixed 4 ug/ml; incubation 19 h
Description: as §1, §2

K. pneumoniae 5576 = assay: BLI potentiation MIC, K. pneumoniae 5576 (SHV-11, CMY-2, DHA-1, TEM-1); assay type: cell-based; details: BLI fixed 4 ug/ml; incubation 19 h
Description: as §1, §2

K. pneumoniae NDM-506 = assay: BLI potentiation MIC, K. pneumoniae NDM-506; assay type: cell-based; details: BLI fixed 4 ug/ml; incubation 19 h
Description: as §1, §2

K. pneumoniae 6839 = assay: BLI potentiation MIC, K. pneumoniae 6839 (SHV-11, SHV-12, DHA-1); assay type: cell-based; details: BLI fixed 4 ug/ml; incubation 19 h
Description: as §1, §2

K. pneumoniae CL5761 = assay: MIC of strain used for extraction of enzymes, K. pneumoniae CL5761 (KPC-3, TEM-216, SHV-5); assay type: cell-based; details: BLI: 4 ug/mL
Description: as §1, §2

K. pneumoniae 4006 = assay: BLI potentiation MIC, K. pneumoniae 4006 (SHV-12, CTX-M-15, TEM-1, OXA-9); assay type: cell-based; details: BLI fixed 4 ug/ml; incubation 19 h
Description: as §1, §2

K. pneumoniae 23 = assay: BLI potentiation MIC, K. pneumoniae 23; assay type: cell-based; details: BLI fixed 4 ug/ml; incubation 19 h
Description: as §1, §2

K. pneumoniae 5117 = assay: BLI potentiation MIC, K. pneumoniae 5117 (SHV-11, TEM-1); assay type: cell-based; details: BLI fixed 4 ug/ml; incubation 19 h
Description: as §1, §2

K. pneumoniae 6540 = assay: BLI potentiation MIC, K. pneumoniae 6540; assay type: cell-based; details: BLI fixed 4 ug/ml; incubation 19 h
Description: as §1, §2

K. pneumoniae 100 = assay: BLI potentiation MIC, K. pneumoniae 100; assay type: cell-based; details: BLI fixed 4 ug/ml; incubation 19 h
Description: as §1, §2

K. pneumoniae 5216 = assay: BLI potentiation MIC, K. pneumoniae 5216 (TEM-1A); assay type: cell-based; details: BLI fixed 4 ug/ml; incubation 19 h
Description: as §1, §2

[2] = molecular target: T1, OXA-48 β-lactamase (class D) (Klebsiella pneumoniae, UniProt Q6XEC0); assay: Inhibitory activity against β-lactamases (nitrocefin), OXA-48; assay type: biochemical; details: 100 μM nitrocefin, 30° C., pH 6.8
T1 construct: MICs of bacterial strains used for extraction of enzymes; endogenous in cells; host or cells: bacterial strain carrying OXA-48 (E. coli according to the earlier reading)
T1 sequence (Q6XEC0 23-265, looked up): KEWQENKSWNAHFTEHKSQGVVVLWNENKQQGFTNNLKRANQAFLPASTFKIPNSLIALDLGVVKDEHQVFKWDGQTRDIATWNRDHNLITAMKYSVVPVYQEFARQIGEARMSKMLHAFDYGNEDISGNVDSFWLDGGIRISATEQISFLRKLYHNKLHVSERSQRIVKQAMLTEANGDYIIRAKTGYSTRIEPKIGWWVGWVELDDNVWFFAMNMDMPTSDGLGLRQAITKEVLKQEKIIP
Description: as §3, §4

P. aeruginosa ATCC27853 = assay: BLI potentiation MIC (broth microdilution), P. aeruginosa ATCC27853 (PoxB, AmpC); assay type: cell-based; details: BLI fixed 4 ug/ml; incubation 19 h
Description: as §1, §2

P. aeruginosa ARC3506 = assay: BLI potentiation MIC, P. aeruginosa ARC3506 (VEB-1, OXA-10, OprD−, AmpC); assay type: cell-based; details: BLI fixed 4 ug/ml; incubation 19 h
Description: as §1, §2

K. pneumoniae 5971(KOX) = assay: BLI potentiation MIC, K. pneumoniae 5971(KOX); assay type: cell-based; details: BLI fixed 4 ug/ml; incubation 19 h
Description: as §1, §2

K. pneumoniae 3784 = assay: BLI potentiation MIC, K. pneumoniae 3784 (SHV-11, SHV-12, DHA-1); assay type: cell-based; details: BLI fixed 4 ug/ml; incubation 19 h
Description: as §1, §2

K. pneumoniae 7586 = assay: BLI potentiation MIC, K. pneumoniae 7586; assay type: cell-based; details: BLI fixed 4 ug/ml; incubation 19 h
Description: as §1, §2

K. pneumoniae ATCC700603 = assay: BLI potentiation MIC, K. pneumoniae ATCC700603 (SHV-3); assay type: cell-based; details: BLI fixed 4 ug/ml; incubation 19 h
Description: as §1, §2

[3] = molecular target: T2, CMY-10 β-lactamase (class C) (Klebsiella aerogenes, UniProt Q99QC1); assay: Inhibitory activity against β-lactamases (nitrocefin), CMY-10; assay type: biochemical; details: 100 μM nitrocefin, 30° C., pH 6.8; read-out: IC50 values, CMY-10
T2 construct: MICs of bacterial strains used for extraction of enzymes; endogenous in cells
T2 sequence (Q99QC1 24-382): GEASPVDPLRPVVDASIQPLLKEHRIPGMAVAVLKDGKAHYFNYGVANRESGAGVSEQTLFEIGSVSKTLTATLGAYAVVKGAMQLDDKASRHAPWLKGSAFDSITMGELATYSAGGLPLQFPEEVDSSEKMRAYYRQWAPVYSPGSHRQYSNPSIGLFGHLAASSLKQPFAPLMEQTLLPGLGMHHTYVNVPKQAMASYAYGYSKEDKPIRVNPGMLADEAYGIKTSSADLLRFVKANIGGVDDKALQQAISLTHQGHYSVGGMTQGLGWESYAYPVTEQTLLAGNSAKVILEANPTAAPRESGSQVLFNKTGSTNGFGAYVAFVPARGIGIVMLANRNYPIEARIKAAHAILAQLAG
Description: as §3, §4

E. aerogenes K9911729 = assay: MIC of strain used for extraction of enzymes, E. aerogenes K9911729 (CMY-10, TEM-1, SHV-12, AmpC (DQ478697)); assay type: cell-based; details: BLI: 4 ug/mL
K. pneumoniae MP14 = assay: BLI potentiation MIC, K. pneumoniae MP14; assay type: cell-based; details: BLI fixed 4 ug/ml; incubation 19 h
Description: as §1, §2

P. aeruginosa ARC3514 = assay: BLI potentiation MIC, P. aeruginosa ARC3514 (KPC-2, OprD−, AmpC); assay type: cell-based; details: BLI fixed 4 ug/ml; incubation 19 h
Description: as §1, §2

K. pneumoniae 4248 = assay: BLI potentiation MIC, K. pneumoniae 4248 (SHV-11, CTX-M-15, TEM-1, OXA-1); assay type: cell-based; details: BLI fixed 4 ug/ml; incubation 19 h
Description: as §1, §2

SMILES: NCCONC(=O)[C@@H]1CC[C@@H]2CN1C(=O)N2OS(=O)(=O)O [OP-595]
- MIC of LCB10-0200 with BLI (E. coli K0519020): 0.0625 μg/mL
- MIC of Meropenem with BLI (E. coli K0519020): 0.125 µg/mL
- MIC of LCB10-0200 with BLI (K. pneumoniae 101): 0.25 μg/mL
- MIC of Meropenem with BLI (K. pneumoniae 101): 0.125 µg/mL and 0.0625 µg/mL
- IC50 [1]: 0.0637 µM
- MIC of LCB10-0200 with BLI (K. pneumoniae 89): 0.0625 μg/mL
- MIC of Ceftazidime with BLI (K. pneumoniae 5576): 0.125 µg/mL
- MIC of LCB10-0200 with BLI (K. pneumoniae 5576): 0.0625 μg/mL
- MIC of Meropenem with BLI (K. pneumoniae 5576): 0.03125 µg/mL and 0.0625 µg/mL
- MIC of Ceftazidime with BLI (K. pneumoniae NDM-506): 0.125 µg/mL
- MIC of Meropenem with BLI (K. pneumoniae NDM-506): >64 µg/mL
- MIC of LCB10-0200 with BLI (K. pneumoniae 6839): 0.0625 μg/mL
- MIC of LCB10-0200 with BLI (K. pneumoniae CL5761): 0.25 μg/mL
- MIC of Meropenem with BLI (K. pneumoniae CL5761): 1 µg/mL
- MIC of Ceftazidime with BLI (K. pneumoniae 4006): 0.125 µg/mL
- MIC of LCB10-0200 with BLI (K. pneumoniae 4006): 0.03125 μg/mL and 0.0625 μg/mL
- MIC of Meropenem with BLI (K. pneumoniae 4006): 0.0625 µg/mL
- MIC of LCB10-0200 with BLI (K. pneumoniae 23): 1 μg/mL
- MIC of LCB10-0200 with BLI (K. pneumoniae 5117): 0.0625 μg/mL
- MIC of Meropenem with BLI (K. pneumoniae 5117): 0.5 µg/mL and 0.25 µg/mL
- MIC of LCB10-0200 with BLI (K. pneumoniae 6540): 0.0625 μg/mL
- MIC of Meropenem with BLI (K. pneumoniae 6540): 0.125 µg/mL and 0.0625 µg/mL
- MIC of LCB10-0200 with BLI (K. pneumoniae 100): 0.0625 μg/mL
- MIC of LCB10-0200 with BLI (K. pneumoniae 5216): 0.25 μg/mL and 0.5 μg/mL
- MIC of Meropenem with BLI (K. pneumoniae 5216): 2 µg/mL
- IC50 [2]: 44.2 µM
- MIC of Ceftazidime with BLI (P. aeruginosa ATCC27853): 2 µg/mL
- MIC of LCB10-0200 with BLI (P. aeruginosa ATCC27853): 0.25 μg/mL and 0.5 μg/mL
- MIC of Meropenem with BLI (P. aeruginosa ATCC27853): 2 µg/mL
- MIC of Ceftazidime with BLI (P. aeruginosa ARC3506): 32 µg/mL
- MIC of LCB10-0200 with BLI (P. aeruginosa ARC3506): 0.25 μg/mL
- MIC of Meropenem with BLI (P. aeruginosa ARC3506): 64 µg/mL
- MIC of LCB10-0200 with BLI (K. pneumoniae 5971(KOX)): 8 μg/mL and 16 μg/mL
- MIC of Ceftazidime with BLI (K. pneumoniae 3784): 0.5 µg/mL
- MIC of LCB10-0200 with BLI (K. pneumoniae 3784): 0.0625 μg/mL
- MIC of Meropenem with BLI (K. pneumoniae 3784): 0.25 µg/mL
- MIC of LCB10-0200 with BLI (K. pneumoniae 7586): 0.03125 μg/mL and 0.0625 μg/mL
- MIC of Ceftazidime with BLI (K. pneumoniae ATCC700603): 0.125 µg/mL
- MIC of LCB10-0200 with BLI (K. pneumoniae ATCC700603): 0.125 μg/mL
- MIC of Meropenem with BLI (K. pneumoniae ATCC700603): 0.125 µg/mL and 0.0625 µg/mL
- IC50 [3]: 42.6 µM
- MIC of LCB10-0200 with BLI (E. aerogenes K9911729): <0.0312 μg/mL
- MIC of Meropenem with BLI (E. aerogenes K9911729): <0.0312 µg/mL
- MIC of LCB10-0200 with BLI (K. pneumoniae MP14): 0.03125 μg/mL and <0.0312 μg/mL
- MIC of Ceftazidime with BLI (P. aeruginosa ARC3514): 8 µg/mL
- MIC of LCB10-0200 with BLI (P. aeruginosa ARC3514): 0.125 μg/mL and 0.25 μg/mL
- MIC of Meropenem with BLI (P. aeruginosa ARC3514): >64 µg/mL
- MIC of Ceftazidime with BLI (K. pneumoniae 4248): 0.0625 µg/mL
- MIC of LCB10-0200 with BLI (K. pneumoniae 4248): <0.03125 μg/mL
- MIC of Meropenem with BLI (K. pneumoniae 4248): 0.0625 µg/mL
